# Reference: publication PMC7827406, “Structure–Activity Relationship (SAR) Study of Spautin-1 to Entail the Discovery of Novel NEK4 Inhibitors” (International Journal of Molecular Sciences, 2021)
# Like-named read-outs stand apart in the source and are kept apart here.
# Experiments:
# Experiment in all cases: biochemical
# Set-up in all cases: Eurofins KinaseProfiler full panel at Km ATP, residual kinase activity (%) relative to DMSO
# VRK2(h) = VRK2(h) (Homo sapiens, UniProt Q86Y07)
# Procedure, shortened: (§1)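 Radiometric kinase activity assays were run with ATP at Km and compounds at 10 µM, and remaining activity (%) was reported. A separate competitive binding screen measured DNA-tagged kinase displaced from immobilized active-site ligands by qPCR, giving percent kinase still bound at 10 µM compound in DMSO.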
# TSSK3(h) = molecular target: T1, TSSK3(h) (Homo sapiens, UniProt Q96PN8)
# T1 sequence (Q96PN8 1-268): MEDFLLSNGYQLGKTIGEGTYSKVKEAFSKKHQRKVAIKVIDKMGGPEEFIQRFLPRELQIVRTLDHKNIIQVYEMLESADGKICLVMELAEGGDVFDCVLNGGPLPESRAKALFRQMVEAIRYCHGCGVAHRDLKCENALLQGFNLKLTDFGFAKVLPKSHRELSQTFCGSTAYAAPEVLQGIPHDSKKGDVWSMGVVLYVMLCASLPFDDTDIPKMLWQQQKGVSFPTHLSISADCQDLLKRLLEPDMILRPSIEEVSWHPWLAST
# Procedure, shortened: as §1
# PAK3(h) = PAK3(h) (Homo sapiens, UniProt O75914)
# Chain of PAK3(h) (O75914 whole entry): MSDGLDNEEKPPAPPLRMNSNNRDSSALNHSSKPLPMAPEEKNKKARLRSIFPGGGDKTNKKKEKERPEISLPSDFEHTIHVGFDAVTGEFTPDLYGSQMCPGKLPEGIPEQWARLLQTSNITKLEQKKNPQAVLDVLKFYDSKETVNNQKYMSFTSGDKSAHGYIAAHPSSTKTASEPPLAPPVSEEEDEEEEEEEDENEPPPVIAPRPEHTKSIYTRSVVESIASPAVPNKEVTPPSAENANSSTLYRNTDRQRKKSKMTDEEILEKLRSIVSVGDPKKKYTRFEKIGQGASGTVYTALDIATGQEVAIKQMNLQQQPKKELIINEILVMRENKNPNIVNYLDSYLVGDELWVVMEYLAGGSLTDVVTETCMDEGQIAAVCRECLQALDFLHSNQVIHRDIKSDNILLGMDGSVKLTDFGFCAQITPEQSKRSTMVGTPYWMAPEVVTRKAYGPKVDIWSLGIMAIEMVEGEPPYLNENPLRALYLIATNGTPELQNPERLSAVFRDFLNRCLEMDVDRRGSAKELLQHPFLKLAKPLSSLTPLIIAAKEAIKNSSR
# Procedure, shortened: as §1
# IGF-1R(h) = molecular target: T2, IGF-1R(h) (Homo sapiens, UniProt P08069)
# T2 construct: gene IGF1R
# T2 sequence (P08069 whole entry): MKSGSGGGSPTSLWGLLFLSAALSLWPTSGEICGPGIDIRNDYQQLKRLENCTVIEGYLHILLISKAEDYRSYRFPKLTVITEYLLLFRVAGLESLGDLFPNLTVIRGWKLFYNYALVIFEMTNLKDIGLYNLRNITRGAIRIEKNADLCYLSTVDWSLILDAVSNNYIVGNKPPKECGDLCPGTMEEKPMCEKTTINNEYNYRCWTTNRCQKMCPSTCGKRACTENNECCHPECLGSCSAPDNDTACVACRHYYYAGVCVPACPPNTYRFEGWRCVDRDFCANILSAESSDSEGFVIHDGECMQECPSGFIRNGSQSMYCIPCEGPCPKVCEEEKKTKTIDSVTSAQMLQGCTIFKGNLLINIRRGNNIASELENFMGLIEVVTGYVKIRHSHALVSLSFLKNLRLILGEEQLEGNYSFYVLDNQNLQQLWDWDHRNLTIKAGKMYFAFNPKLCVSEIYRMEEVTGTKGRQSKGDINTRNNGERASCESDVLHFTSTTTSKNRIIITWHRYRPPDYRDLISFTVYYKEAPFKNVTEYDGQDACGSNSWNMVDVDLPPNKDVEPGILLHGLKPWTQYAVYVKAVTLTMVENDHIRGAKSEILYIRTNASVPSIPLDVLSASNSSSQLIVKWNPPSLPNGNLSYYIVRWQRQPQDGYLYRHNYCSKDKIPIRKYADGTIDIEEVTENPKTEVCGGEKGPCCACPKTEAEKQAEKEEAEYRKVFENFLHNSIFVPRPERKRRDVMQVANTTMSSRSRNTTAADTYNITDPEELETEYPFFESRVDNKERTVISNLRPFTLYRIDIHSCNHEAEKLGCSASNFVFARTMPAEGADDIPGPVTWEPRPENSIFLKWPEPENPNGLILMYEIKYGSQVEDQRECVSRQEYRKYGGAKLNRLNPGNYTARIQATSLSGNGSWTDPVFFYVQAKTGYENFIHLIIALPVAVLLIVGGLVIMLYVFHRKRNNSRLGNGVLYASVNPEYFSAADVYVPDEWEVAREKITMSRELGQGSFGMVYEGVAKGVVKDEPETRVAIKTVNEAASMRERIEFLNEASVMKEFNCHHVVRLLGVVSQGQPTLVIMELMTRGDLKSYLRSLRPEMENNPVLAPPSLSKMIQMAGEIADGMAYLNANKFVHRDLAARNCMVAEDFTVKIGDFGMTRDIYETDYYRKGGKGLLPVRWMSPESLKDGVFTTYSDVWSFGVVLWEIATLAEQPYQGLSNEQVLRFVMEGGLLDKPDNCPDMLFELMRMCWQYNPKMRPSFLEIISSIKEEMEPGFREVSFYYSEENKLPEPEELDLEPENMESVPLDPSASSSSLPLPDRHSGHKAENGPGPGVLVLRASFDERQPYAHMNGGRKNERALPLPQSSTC
# Procedure, shortened: as §1
# MAPKAP-K3(h) = molecular target: T3, MAPKAP-K3(h) (Homo sapiens, UniProt Q16644)
# T3 construct: gene MAPKAPK3
# T3 sequence (Q16644 whole entry): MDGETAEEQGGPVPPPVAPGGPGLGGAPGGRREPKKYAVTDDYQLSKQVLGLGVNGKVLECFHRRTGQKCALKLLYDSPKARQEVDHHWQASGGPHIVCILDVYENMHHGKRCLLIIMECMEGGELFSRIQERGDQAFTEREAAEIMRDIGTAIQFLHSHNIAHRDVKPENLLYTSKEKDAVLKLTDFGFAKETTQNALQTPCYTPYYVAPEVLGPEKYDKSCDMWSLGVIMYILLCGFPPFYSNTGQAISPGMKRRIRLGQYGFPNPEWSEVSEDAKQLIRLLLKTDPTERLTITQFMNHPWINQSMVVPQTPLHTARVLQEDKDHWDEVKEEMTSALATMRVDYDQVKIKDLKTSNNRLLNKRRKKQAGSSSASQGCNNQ
# Procedure, shortened: as §1
# Plk4(h) = molecular target: T4, Plk4(h) (Homo sapiens, UniProt O00444)
# T4 sequence (O00444 1-970): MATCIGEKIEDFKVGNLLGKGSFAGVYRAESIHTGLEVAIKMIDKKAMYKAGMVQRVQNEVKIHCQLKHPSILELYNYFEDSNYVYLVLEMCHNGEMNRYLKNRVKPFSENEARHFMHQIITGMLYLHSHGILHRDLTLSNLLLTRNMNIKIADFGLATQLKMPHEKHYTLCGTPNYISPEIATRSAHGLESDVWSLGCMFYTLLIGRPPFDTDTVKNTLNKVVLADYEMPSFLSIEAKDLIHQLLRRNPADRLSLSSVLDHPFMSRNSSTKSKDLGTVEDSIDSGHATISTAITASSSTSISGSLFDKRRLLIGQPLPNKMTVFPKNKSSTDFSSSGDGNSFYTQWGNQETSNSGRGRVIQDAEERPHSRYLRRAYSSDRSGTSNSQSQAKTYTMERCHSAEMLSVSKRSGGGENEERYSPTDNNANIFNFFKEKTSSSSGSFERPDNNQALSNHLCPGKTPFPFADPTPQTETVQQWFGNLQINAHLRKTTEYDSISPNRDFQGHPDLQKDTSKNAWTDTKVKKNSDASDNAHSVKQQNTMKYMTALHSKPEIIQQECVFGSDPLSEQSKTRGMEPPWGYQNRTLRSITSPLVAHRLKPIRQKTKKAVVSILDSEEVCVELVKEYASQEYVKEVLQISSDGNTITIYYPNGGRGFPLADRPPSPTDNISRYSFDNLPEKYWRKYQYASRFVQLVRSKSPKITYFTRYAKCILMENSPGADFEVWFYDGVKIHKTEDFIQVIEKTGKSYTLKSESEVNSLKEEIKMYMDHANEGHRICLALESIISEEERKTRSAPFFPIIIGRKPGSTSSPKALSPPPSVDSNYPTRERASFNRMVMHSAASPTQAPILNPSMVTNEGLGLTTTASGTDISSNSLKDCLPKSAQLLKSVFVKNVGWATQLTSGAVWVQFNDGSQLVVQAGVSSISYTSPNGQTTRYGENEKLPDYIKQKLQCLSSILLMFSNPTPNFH
# Procedure, shortened: as §1
# CDK18/cyclinY(h) = CDK18/cyclinY(h) (Homo sapiens, UniProt Q07002)
# Chain of CDK18/cyclinY(h) (Q07002 whole entry): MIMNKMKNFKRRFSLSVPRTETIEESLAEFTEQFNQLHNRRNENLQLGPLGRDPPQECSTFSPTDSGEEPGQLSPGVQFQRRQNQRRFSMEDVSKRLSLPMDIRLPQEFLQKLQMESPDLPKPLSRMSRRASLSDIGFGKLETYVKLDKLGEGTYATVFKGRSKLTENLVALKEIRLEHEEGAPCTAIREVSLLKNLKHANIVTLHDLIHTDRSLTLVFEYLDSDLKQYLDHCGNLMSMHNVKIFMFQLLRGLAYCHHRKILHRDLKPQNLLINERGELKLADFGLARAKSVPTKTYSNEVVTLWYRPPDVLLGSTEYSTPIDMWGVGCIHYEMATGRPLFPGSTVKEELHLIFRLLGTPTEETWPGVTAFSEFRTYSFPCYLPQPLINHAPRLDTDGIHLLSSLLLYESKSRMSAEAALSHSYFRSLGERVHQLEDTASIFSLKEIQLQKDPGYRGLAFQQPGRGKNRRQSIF
# Chain of CDK18/cyclinY(h) (Q8ND76 whole entry partner): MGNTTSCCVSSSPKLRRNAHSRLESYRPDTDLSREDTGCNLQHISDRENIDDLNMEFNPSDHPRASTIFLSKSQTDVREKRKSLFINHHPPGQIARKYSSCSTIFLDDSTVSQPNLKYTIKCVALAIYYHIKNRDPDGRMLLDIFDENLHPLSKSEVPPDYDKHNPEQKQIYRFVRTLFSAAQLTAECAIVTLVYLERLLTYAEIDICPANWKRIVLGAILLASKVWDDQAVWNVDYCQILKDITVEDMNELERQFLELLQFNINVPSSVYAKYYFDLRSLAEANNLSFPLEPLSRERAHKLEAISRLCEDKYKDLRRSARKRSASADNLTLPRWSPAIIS
# Procedure, shortened: as §1
# SGK2(h) = molecular target: T5, SGK2(h) (Homo sapiens, UniProt Q9HBY8)
# T5 sequence (Q9HBY8 1-367): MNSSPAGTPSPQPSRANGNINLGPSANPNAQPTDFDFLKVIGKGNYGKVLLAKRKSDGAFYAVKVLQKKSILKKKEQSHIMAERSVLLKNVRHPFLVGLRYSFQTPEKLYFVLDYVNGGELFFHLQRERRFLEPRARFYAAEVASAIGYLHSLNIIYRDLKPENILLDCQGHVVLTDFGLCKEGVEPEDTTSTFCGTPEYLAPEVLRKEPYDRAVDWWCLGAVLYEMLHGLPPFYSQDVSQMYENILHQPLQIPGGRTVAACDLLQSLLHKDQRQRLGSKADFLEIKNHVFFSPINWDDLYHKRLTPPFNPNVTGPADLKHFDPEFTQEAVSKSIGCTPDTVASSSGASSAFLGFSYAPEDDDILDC
# Procedure, shortened: as §1
# DYRK1A(h) = DYRK1A(h) (Homo sapiens, UniProt Q13627)
# Procedure, shortened: as §1
# [1] = read-out: Residual activity (%) 5ay
# [2] = read-out: Residual activity (%) Spautin-1 5aa
# [3] = read-out: Residual activity (%) 5at
# [4] = read-out: Residual activity (%) 5as
# Chain of VRK2(h) (Q86Y07 whole entry): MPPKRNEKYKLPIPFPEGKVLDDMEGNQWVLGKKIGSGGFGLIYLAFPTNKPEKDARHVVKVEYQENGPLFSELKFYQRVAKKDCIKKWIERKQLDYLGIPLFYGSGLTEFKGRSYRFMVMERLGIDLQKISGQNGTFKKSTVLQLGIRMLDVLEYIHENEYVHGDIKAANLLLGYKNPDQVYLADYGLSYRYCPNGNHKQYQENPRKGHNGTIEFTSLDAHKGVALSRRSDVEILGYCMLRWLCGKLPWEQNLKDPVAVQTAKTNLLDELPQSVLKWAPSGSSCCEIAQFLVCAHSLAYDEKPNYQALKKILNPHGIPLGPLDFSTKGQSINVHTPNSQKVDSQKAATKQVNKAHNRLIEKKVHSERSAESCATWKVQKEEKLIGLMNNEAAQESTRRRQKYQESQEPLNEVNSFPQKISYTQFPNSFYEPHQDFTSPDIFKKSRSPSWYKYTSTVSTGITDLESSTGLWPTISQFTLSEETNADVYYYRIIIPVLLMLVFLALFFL
structure (smiles),measurement,setting,value
"COc1ccc2ncnc(Nc3cccc(F)c3)c2c1 [5ay, N-(3-Fluorophenyl)-6-Methoxy-4-Quinazolinamine]",remaining activity at 10 µM,VRK2(h); [1],88%
same,remaining activity at 10 µM,TSSK3(h); [1],104%
same,remaining activity at 10 µM,PAK3(h); [1],99%
same,remaining activity at 10 µM,IGF-1R(h); [1],101%
same,remaining activity at 10 µM,MAPKAP-K3(h); [1],78%
same,remaining activity at 10 µM,Plk4(h); [1],87%
same,remaining activity at 10 µM,CDK18/cyclinY(h); [1],86%
same,remaining activity at 10 µM,SGK2(h); [1],103%
same,remaining activity at 10 µM,DYRK1A(h); [1],29%
"Fc1ccc(CNc2ncnc3ccc(F)cc23)cc1 [5aa, 6-Fluoro-N-(4-fluorobenzyl)-4-Quinazolinamine]",remaining activity at 10 µM,VRK2(h); [2],91%
same,remaining activity at 10 µM,TSSK3(h); [2],111%
same,remaining activity at 10 µM,PAK3(h); [2],96%
same,remaining activity at 10 µM,IGF-1R(h); [2],90%
same,remaining activity at 10 µM,MAPKAP-K3(h); [2],95%
same,remaining activity at 10 µM,Plk4(h); [2],91%
same,remaining activity at 10 µM,CDK18/cyclinY(h); [2],87%
same,remaining activity at 10 µM,SGK2(h); [2],108%
same,remaining activity at 10 µM,DYRK1A(h); [2],74%
"Fc1ccc2ncnc(NCCc3ccc(Cl)cc3)c2c1 [5at, N-[2-(4-Chlorophenyl)Ethyl]-6-Fluoro-4-Quinazolinamine]",remaining activity at 10 µM,VRK2(h); [3],94%
same,remaining activity at 10 µM,TSSK3(h); [3],95%
same,remaining activity at 10 µM,PAK3(h); [3],93%
same,remaining activity at 10 µM,IGF-1R(h); [3],83%
same,remaining activity at 10 µM,MAPKAP-K3(h); [3],83%
same,remaining activity at 10 µM,Plk4(h); [3],78%
same,remaining activity at 10 µM,CDK18/cyclinY(h); [3],116%
same,remaining activity at 10 µM,SGK2(h); [3],89%
same,remaining activity at 10 µM,DYRK1A(h); [3],63%
"Fc1ccc(CCNc2ncnc3ccc(F)cc23)cc1 [5as, 6-Fluoro-N-[2-(4-Fluorophenyl)Ethyl]-4-Quinazolinamine]",remaining activity at 10 µM,VRK2(h); [4],99%
same,remaining activity at 10 µM,TSSK3(h); [4],97%
same,remaining activity at 10 µM,PAK3(h); [4],107%
same,remaining activity at 10 µM,IGF-1R(h); [4],83%
same,remaining activity at 10 µM,MAPKAP-K3(h); [4],66%
same,remaining activity at 10 µM,Plk4(h); [4],80%
same,remaining activity at 10 µM,CDK18/cyclinY(h); [4],102%
same,remaining activity at 10 µM,SGK2(h); [4],115%
same,remaining activity at 10 µM,DYRK1A(h); [4],68%
